Experimental data published in patent US20200337993A1, “INTRACANALICULAR HYDROGEL INSERTS FOR THE DELIVERY OF ANESTHETICS” (Ocular Therapeutix, Inc., priority 2019, published 2020).
Like-named read-outs stand apart in the source and are kept apart here.

What was measured:
[1] = In vitro release of bupivacaine from the Inventive Composition in PBS, pH 7.4 at 37° C.; type: physicochemical
[2] = Bupivacaine concentrations in tear fluid after intracanalicular administration (LC/MS of Schirmer strip samples); type: in vivo, beagle dogs; conditions: female, beagle, dog, other: intracanalicular, 160 μg; for concentration at 2 day: Day 2, N=3, intracanalicular Inventive Composition insert; for concentration at 3 day: Day 3, N=6, intracanalicular Inventive Composition insert; for concentration at 4 day: Day 4, N=6, intracanalicular Inventive Composition insert; for concentration at 5 day: Day 5, N=3, intracanalicular Inventive Composition insert
Method: Corneal wounds were created in both eyes (OU) of ten female beagle dogs on Day 0 using epithelial debridement. Animals were post-operatively monitored and treated with eye drops. The Inventive Composition (IC) containing approximately 160 μg of bupivacaine was inserted into the lower or upper lid punctum of one eye of all ten dogs on Day 0 after corneal wounding and removed on Day 7 after wounding. Clinical ophthalmic examinations (slit-lamp biomicroscopy) were conducted daily on weekdays through Day 7. Fluorescein staining was performed and slit-lamp photographs were taken on Days 0, 3, 5, and 7 (Group 1) or on Days 0, 2, 4, and 7 (Group 2). Corneal esthesiometry was performed at baseline and on Days 0, 3-7, 10-14, 31-35, and 38-42 (Group 1) or on Days 0-4, 7-11, 14, 28-32, and 35-39 (Group 2). General health observations and gross ocular observations were performed daily from Day 1 through Day 11 (Group 1) or Day 8 (Group 2). Body weights were recorded prior to dosing and on Day 7. Tears were collected on Days 3, 4, and 5 (Group 1) or on Days 1, 2, 3, and 4 (Group 2). The two groups were staggered in order to collect tear film samples on days 1, 2, 3, 4 and 5 using Schirmer test strips. Tear film samples were collected in the morning prior to administration of drops, in order to avoid dilution of the samples. Pre and post weights were collected on the tear film strips, and samples were sent to PharmOptima, LLC (Portage, Mich.) for bioanalysis via LC/MS. The PK portion of the study measured concentrations of bupivacaine released from the Inventive Composition into the tear fluid over 5 days following intracanalicular administration in beagle dogs and results are presented in Table 3. Tear fluid samples were collected pre-drop administration to prevent dilution of the bupivacaine concentrations. The PK profile indicates elevated concentrations of bupivacaine in the tear fluid through 4 days with a decrease observed at 5 days.

[3] = read-out: Bupivacaine concentration in tear fluid, Average
[4] = read-out: Bupivacaine concentration in tear fluid, Maximum
[5] = read-out: Bupivacaine concentration in tear fluid, Median
[6] = read-out: Bupivacaine concentration in tear fluid, Minimum

Bupivacaine Release Rate ([1]; in vitro sampling period 0-1 hours (burst phase)): 14.6 µg/h
Bupivacaine Release Rate ([1]; in vitro sampling period 1-18 hours): 3.4 µg/h
Bupivacaine Release Rate ([1]; in vitro sampling period 18-26 hours): 1.5 µg/h
Bupivacaine Release Rate ([1]; in vitro sampling period 26-42 hours): 1.1 µg/h
Bupivacaine Release Rate ([1]; in vitro sampling period 42-68 hours): 1.0 µg/h
Bupivacaine Release Rate ([1]; in vitro sampling period 68-93 hours): 0.6 µg/h
Bupivacaine Release Rate ([1]; in vitro sampling period 93-115 hours): 0.4 µg/h
Bupivacaine Release Rate ([1]; in vitro sampling period 115-168 hours): 0.1 µg/h
concentration at 1 day ([2]; Day 1, N=3, intracanalicular Inventive Composition insert (approx. 160 μg bupivacaine), Groups 1 and 2, read-out: Bupivacaine concentration in tear fluid, Average): 780 ng/mL
concentration at 1 day ([2]; Day 1, N=3, intracanalicular Inventive Composition insert, read-out: Bupivacaine concentration in tear fluid, Maximum): 1520 ng/mL
concentration at 1 day ([2]; Day 1, N=3, intracanalicular Inventive Composition insert, read-out: Bupivacaine concentration in tear fluid, Median): 550 ng/mL
concentration at 1 day ([2]; Day 1, N=3, intracanalicular Inventive Composition insert, read-out: Bupivacaine concentration in tear fluid, Minimum): 280 ng/mL
concentration at 2 day [2, 3]: 380 ng/mL
concentration at 2 day [2, 4]: 770 ng/mL
concentration at 2 day [2, 5]: 230 ng/mL
concentration at 2 day [2, 6]: 150 ng/mL
concentration at 3 day [2, 3]: 740 ng/mL
concentration at 3 day [2, 4]: 1520 ng/mL
concentration at 3 day [2, 5]: 590 ng/mL
concentration at 3 day [2, 6]: 100 ng/mL
concentration at 4 day [2, 3]: 570 ng/mL
concentration at 4 day [2, 4]: 1180 ng/mL
concentration at 4 day [2, 5]: 450 ng/mL
concentration at 4 day [2, 6]: 80 ng/mL
concentration at 5 day [2, 3]: 250 ng/mL
concentration at 5 day [2, 4]: 430 ng/mL
concentration at 5 day [2, 5]: 230 ng/mL
concentration at 5 day [2, 6]: 100 ng/mL
Compound: CCCCN1CCCCC1C(=O)Nc1c(C)cccc1C (stereo not shown) [Bupivacaine, bupivacaine]
